Results as given in PubChem BioAssay (NCI).
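How tested: cells in 96-well plates exposed to compound for 48 hours at five concentrations. TGI denotes the concentration required for complete inhibition of growth.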

Columns and labels:
Assay in all cases: inhibition of tumour cell growth, NCI panel, 48 h
ACHN renal = tested on: ACHN renal
BT-549 breast = tested on: BT-549 breast
MDA-MB-231 breast = tested on: MDA-MB-231 breast
K-562 leukemia = tested on: K-562 leukemia
NCI-H522 lung = tested on: NCI-H522 lung
SK-MEL-2 melanoma = tested on: SK-MEL-2 melanoma
HS 578T breast = tested on: HS 578T breast
KM12 colon = tested on: KM12 colon
SNB-19 CNS = tested on: SNB-19 CNS
A498 renal = tested on: A498 renal
PC-3 prostate = tested on: PC-3 prostate
SF-539 CNS = tested on: SF-539 CNS
IGROV1 ovarian = tested on: IGROV1 ovarian
SW-620 colon = tested on: SW-620 colon
SF-268 CNS = tested on: SF-268 CNS
NCI-H23 lung = tested on: NCI-H23 lung
NCI/ADR-RES ovarian = tested on: NCI/ADR-RES ovarian
EKVX NSCLC = tested on: EKVX NSCLC
OVCAR-4 ovarian = tested on: OVCAR-4 ovarian
SR leukemia = tested on: SR leukemia

| Structure (SMILES) | TGI (ACHN renal) [µM] | TGI (BT-549 breast) [µM] | TGI (MDA-MB-231 breast) [µM] | TGI (K-562 leukemia) [µM] | TGI (NCI-H522 lung) [µM] | TGI (SK-MEL-2 melanoma) [µM] | TGI (HS 578T breast) [µM] | TGI (KM12 colon) [µM] | TGI (SNB-19 CNS) [µM] | TGI (A498 renal) [µM] | TGI (PC-3 prostate) [µM] | TGI (SF-539 CNS) [µM] | TGI (IGROV1 ovarian) [µM] | TGI (SW-620 colon) [µM] | TGI (SF-268 CNS) [µM] | TGI (NCI-H23 lung) [µM] | TGI (NCI/ADR-RES ovarian) [µM] | TGI (EKVX NSCLC) [µM] | TGI (OVCAR-4 ovarian) [µM] | TGI (SR leukemia) [µM] |
| --- | --- | --- | --- | --- | --- | --- | --- | --- | --- | --- | --- | --- | --- | --- | --- | --- | --- | --- | --- | --- |
| C=C1CC(Cn2ccc(=O)[nH]c2=O)(c2ccc(-c3ccccc3)cc2)OC1=O (stereo not given) | 3.25 | 3.73 | 5.8 | 1.53 | 2.39 | 4.55 | 22.9 | 12.9 | 34 | 16.1 | 7.52 | 8.89 | 2.64 | 0.941 | 46.3 | 8.4 | 4.64 | 29.9 | – | – |
| O[C@@]1(c2cccs2)c2cccc(Cl)c2[C@](O)(c2cccs2)c2cccc(Cl)c21 | 39.5 | 48.1 | 71 | > 100 | 55.6 | 42.4 | 49.2 | 34 | 80.3 | 25.8 | 50.7 | > 100 | 33 | 44.8 | 66.8 | 39.8 | > 100 | 44.9 | 40.9 | – |
| Nc1nc(Cl)c(N)c(NCC2(CO)CC(Cc3ccccc3)C2)n1 (stereo not given) | > 100 | > 100 | > 100 | > 94.3 | > 100 | > 100 | > 100 | > 100 | > 100 | > 78.5 | > 100 | > 100 | > 100 | > 100 | > 100 | > 100 | > 100 | > 100 | > 100 | – |
| CC1=NN(c2nc(N)nc(/C(C#N)=C/c3ccc([N+](=O)[O-])o3)n2)C(C)(C)C1 | 3.49 | 9.24 | 3.29 | 1.13 | – | 16.7 | 71.4 | 28.1 | 29.7 | 32.6 | 21.5 | 12 | 3.82 | 3.71 | 16.2 | 10.8 | > 49.9 | 9.04 | 25.7 | – |
| COC(=O)c1ccc(Oc2nc3ccccc3nc2-c2cccs2)cc1 | > 100 | > 100 | 57.8 | – | > 100 | > 100 | 63.3 | > 100 | 86.1 | – | > 100 | > 100 | > 100 | > 100 | 66 | 74.5 | > 100 | > 100 | > 100 | > 100 |
| CCN(CC)c1ccc2c(c1)OC(=O)C(c1nnc(-c3ccc([N+](=O)[O-])cc3)o1)C2 (stereo not given) | > 100 | > 100 | > 100 | > 100 | > 100 | > 100 | > 100 | > 100 | > 100 | > 100 | > 100 | – | > 100 | > 100 | > 100 | > 100 | > 100 | > 100 | > 100 | – |
| CCC(C)C(C(=O)N/N=C1/SCC(=O)N1C)C(=O)N/N=C1/SCC(=O)N1C (stereo not given) | > 100 | > 100 | > 100 | > 100 | > 100 | > 100 | > 100 | > 100 | > 100 | > 100 | > 100 | > 100 | > 100 | > 100 | > 100 | > 100 | > 100 | > 100 | > 100 | – |
| COc1ccc(/C(CCl)=C(\Nc2ccccc2)c2ccc(OC)c(OC)c2)cc1OC | > 100 | > 100 | > 100 | > 100 | > 100 | > 100 | > 100 | > 100 | > 100 | > 100 | > 100 | > 100 | – | > 100 | > 100 | > 100 | > 100 | > 100 | > 100 | – |
| Nc1nc(N)c(C2=CCN(Cc3ccccc3)CC2)c(=O)[nH]1 | > 100 | > 100 | > 100 | > 100 | > 100 | > 100 | > 100 | > 100 | > 100 | > 100 | > 100 | > 100 | > 100 | > 100 | > 100 | > 100 | > 100 | > 100 | > 100 | – |
| CC(CN(C)C)C(=O)c1ccccc1C(=O)O (stereo not given) | > 100 | 41.7 | 81.6 | > 100 | 36.6 | 46.9 | 80.6 | > 100 | > 100 | > 100 | 94.5 | – | > 100 | > 100 | > 100 | 89.1 | 92.6 | > 100 | > 100 | – |
| Cn1c(NN)nc(-c2ccc([N+](=O)[O-])cc2)c(C#N)c1=O | 24.7 | 25.5 | 28.4 | > 100 | 29.9 | 41.3 | 32.9 | 30.1 | 26.3 | – | 43.5 | – | 39.9 | 25.2 | 31.1 | 26.2 | > 100 | 44.1 | 30.8 | 43.8 |
| O=c1[nH]c(=O)n(C2CC(O)C(CO)O2)cc1OCCc1ccccc1 (stereo not given) | > 100 | > 100 | > 100 | > 100 | > 100 | – | > 100 | > 100 | > 100 | – | > 100 | – | > 100 | – | > 100 | > 100 | > 100 | > 100 | > 100 | > 100 |
| CCOC(=O)[C@@H]1C[C@H]1c1ccc(O)c(O)c1 | > 100 | > 100 | 63.1 | 51.3 | 47.2 | 61.5 | > 100 | > 100 | > 100 | – | > 100 | > 100 | > 100 | > 100 | > 100 | > 100 | > 100 | > 100 | – | > 100 |
| CCC(CS(=O)(=O)O)[N+](=O)[O-] (stereo not given) | > 100 | > 100 | > 100 | > 100 | > 100 | > 100 | > 100 | > 100 | > 100 | > 100 | > 100 | > 100 | > 100 | > 100 | > 100 | > 100 | > 100 | > 100 | > 100 | – |
| CC1CC(C)[C@H](O)C([C@H](O)CC2CC(=O)N(C)C(=O)C2)C1 (stereo not given in full) | > 100 | > 100 | > 100 | > 100 | > 100 | > 100 | > 100 | > 100 | > 100 | > 100 | > 100 | > 100 | > 100 | > 100 | > 100 | > 100 | > 100 | > 100 | > 100 | – |
| Cc1cc(C)nc(NS(=O)(=O)c2ccc(NN=c3c4ccccc4n(C)c4ccccc34)cc2)n1 | 77.4 | > 100 | > 100 | 66.2 | 61.5 | 58.8 | > 100 | > 100 | > 100 | – | > 100 | > 100 | > 100 | > 100 | > 100 | > 100 | > 100 | 97.7 | 99.3 | – |
| CCSc1c(C)c2c(n(Cc3ccc(OC)cc3)c1=O)Cc1ccccc1C2 | 84.2 | 93.4 | 94.7 | 60.9 | 40.1 | 66 | > 100 | > 100 | > 100 | – | 84.3 | 80.1 | 54.2 | 84 | > 100 | > 100 | 74.5 | 96.9 | > 100 | 21.3 |
| O=[N+]([O-])c1ccc(N=Nc2c(O)ccc3cc(S(=O)(=O)O)ccc23)cc1 | > 100 | > 100 | > 100 | > 100 | > 100 | > 100 | > 100 | > 100 | > 100 | > 100 | > 100 | – | > 100 | > 100 | > 100 | > 100 | > 100 | > 100 | > 100 | – |
| [N-]=[N+]=Nc1ccc(NCCCCCC(=O)ON2C(=O)CCC2=O)c([N+](=O)[O-])c1 | > 100 | > 100 | > 100 | > 100 | > 100 | > 100 | 97.2 | > 100 | > 100 | – | > 100 | > 100 | > 100 | > 100 | > 100 | > 100 | > 100 | > 100 | > 100 | – |
| O=C1NCN(c2ccccc2)C12CCN(CCc1ccc3[nH]c(=S)[nH]c3c1)CC2 | > 100 | > 100 | 41.6 | – | > 100 | 41 | > 100 | > 100 | > 100 | > 100 | 75.1 | 58.4 | > 100 | 25.8 | > 100 | > 100 | > 100 | > 100 | > 100 | – |
